Results from PubChem BioAssay (NCI).
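Assay format: 96-well plates, 48-hour exposure. GI50 is the concentration that inhibits growth by half. TGI marks complete inhibition of growth.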

What was measured:
Experiment in all cases: growth of human tumour cells (NCI), 48 h
[1] = tested on: HCT-15 colon
[2] = tested on: OVCAR-8 ovarian
[3] = tested on: HCT-116 colon
[4] = tested on: BT-549 breast
[5] = tested on: MDA-MB-435
[6] = tested on: MDA-MB-231 breast
[7] = tested on: K-562 leukemia
[8] = tested on: SF-268 CNS
[9] = tested on: SNB-75 CNS
[10] = tested on: DU-145 prostate
[11] = tested on: SF-539 CNS
[12] = tested on: A549 NSCLC
[13] = tested on: MALME-3M melanoma
[14] = tested on: HOP-92 NSCLC
[15] = tested on: SNB-19 CNS
[16] = tested on: T-47D breast
[17] = tested on: UACC-62 melanoma
[18] = tested on: NCI-H522 lung
[19] = tested on: SK-MEL-28 melanoma
[20] = tested on: SK-MEL-2 melanoma
[21] = tested on: SK-OV-3 ovarian
[22] = tested on: RPMI-8226 leukemia
[23] = tested on: NCI-H226 lung
[24] = tested on: HT29 colon
[25] = tested on: SW-620 colon
[26] = tested on: EKVX NSCLC
[27] = tested on: MCF7 breast
[28] = tested on: UO-31 renal
[29] = tested on: CCRF-CEM leukemia
[30] = tested on: SK-MEL-5 melanoma
[31] = tested on: SR leukemia
[32] = tested on: HL-60(TB) leukemia
[33] = tested on: NCI-H460 lung
[34] = tested on: HCC-2998 colon
[35] = tested on: TK-10 renal
[36] = tested on: NCI-H23 lung
[37] = tested on: HOP-62 NSCLC
[38] = tested on: M14 melanoma
[39] = tested on: UACC-257 melanoma
[40] = tested on: SN12C renal
[41] = tested on: HS 578T breast
[42] = tested on: U251 CNS
[43] = tested on: A498 renal
[44] = tested on: ACHN renal
[45] = tested on: OVCAR-5 ovarian
[46] = tested on: SF-295 CNS
[47] = tested on: CAKI-1 renal
[48] = tested on: OVCAR-3 ovarian
[49] = tested on: OVCAR-4 ovarian
[50] = tested on: PC-3 prostate
[51] = tested on: KM12 colon
[52] = tested on: NCI/ADR-RES ovarian
[53] = tested on: 786-0 renal
[54] = tested on: IGROV1 ovarian
[55] = tested on: COLO 205 colon
[56] = tested on: LOX IMVI melanoma
[57] = tested on: MOLT-4 leukemia
[58] = tested on: RXF 393 renal

SMILES: O=C1Nc2cc(-c3cccc(O)c3)ccc2/C1=C/c1ccc[nH]1
- GI50 [1]: 0.271 µM
- TGI [1]: 12.7 µM
- GI50 [2]: 3.45 µM
- TGI [2]: 49.2 µM
- GI50 [3]: 1.32 µM
- TGI [3]: 3.44 µM
- GI50 [4]: 0.506 µM
- TGI [4]: 3.96 µM
- GI50 [5]: 0.391 µM
- TGI [5]: 1.66 µM
- GI50 [6]: 0.163 µM
- TGI [6]: 7.39 µM
- GI50 [7]: 0.355 µM
- TGI [7]: > 100 µM
- GI50 [8]: 1.76 µM
- TGI [8]: 8.04 µM
- GI50 [9]: 1.31 µM
- TGI [9]: 4.53 µM
- GI50 [10]: 3.16 µM
- TGI [10]: 23.6 µM
- GI50 [11]: 1.12 µM
- TGI [11]: 2.49 µM
- GI50 [12]: 3.05 µM
- TGI [12]: 11.8 µM
- GI50 [13]: 1.34 µM
- TGI [13]: 3.71 µM
- GI50 [14]: 1.9 µM
- TGI [14]: 6.26 µM
- GI50 [15]: 3.5 µM
- TGI [15]: 15.1 µM
- GI50 [16]: 0.17 µM
- TGI [16]: 0.472 µM
- GI50 [17]: 2.63 µM
- TGI [17]: 8.89 µM
- GI50 [18]: 1.6 µM
- TGI [18]: 14.1 µM
- GI50 [19]: 1.73 µM
- TGI [19]: 3.59 µM
- GI50 [20]: 1.48 µM
- TGI [20]: 6.77 µM
- GI50 [21]: 0.655 µM
- TGI [21]: 5.22 µM
- GI50 [22]: 0.588 µM
- TGI [22]: 5.83 µM
- GI50 [23]: 2.79 µM
- TGI [23]: 11.4 µM
- GI50 [24]: 4.71 µM
- TGI [24]: 30.6 µM
- GI50 [25]: 1.17 µM
- TGI [25]: 8.27 µM
- GI50 [26]: 0.121 µM
- TGI [26]: 17 µM
- GI50 [27]: 0.257 µM
- TGI [27]: 2.44 µM
- GI50 [28]: 0.359 µM
- TGI [28]: 3.78 µM
- GI50 [29]: 2.27 µM
- TGI [29]: > 100 µM
- GI50 [30]: 1.6 µM
- TGI [30]: 3.32 µM
- GI50 [31]: 0.0282 µM
- TGI [31]: 1.82 µM
- GI50 [32]: 1.51 µM
- TGI [32]: 7.05 µM
- GI50 [33]: 0.46 µM
- TGI [33]: 3.96 µM
- GI50 [34]: 2.03 µM
- TGI [34]: 11.8 µM
- GI50 [35]: 0.833 µM
- TGI [35]: 9.19 µM
- GI50 [36]: 0.182 µM
- TGI [36]: 4.56 µM
- GI50 [37]: 2.3 µM
- TGI [37]: 8.55 µM
- GI50 [38]: 1.68 µM
- TGI [38]: 3.54 µM
- GI50 [39]: 2.81 µM
- TGI [39]: 8.53 µM
- GI50 [40]: 1.6 µM
- TGI [40]: 7.11 µM
- GI50 [41]: 1.51 µM
- TGI [41]: 5.73 µM
- GI50 [42]: 2.38 µM
- TGI [42]: 12.1 µM
- GI50 [43]: 1.48 µM
- TGI [43]: 4.1 µM
- GI50 [44]: 0.515 µM
- TGI [44]: 5.5 µM
- GI50 [45]: 2.89 µM
- TGI [45]: 15.4 µM
- GI50 [46]: 2.34 µM
- TGI [46]: 5.23 µM
- GI50 [47]: 1.79 µM
- TGI [47]: 5.91 µM
- GI50 [48]: 1.43 µM
- TGI [48]: 5.85 µM
- GI50 [49]: 0.305 µM
- TGI [49]: 16.2 µM
- GI50 [50]: 2.53 µM
- TGI [50]: 10.7 µM
- GI50 [51]: 0.225 µM
- TGI [51]: 2.52 µM
- GI50 [52]: 2.51 µM
- TGI [52]: 12.5 µM
- GI50 [53]: 2.22 µM
- TGI [53]: 7.32 µM
- GI50 [54]: 1.01 µM
- TGI [54]: 10.1 µM
- GI50 [55]: 4.37 µM
- TGI [55]: 28.6 µM
- GI50 [56]: 1.31 µM
- TGI [56]: 3.11 µM
- GI50 [57]: 1.07 µM
- TGI [57]: 33.6 µM
- GI50 [58]: 0.476 µM
- TGI [58]: 2.73 µM
